# Laboratory results: PubChem BioAssay AID1963966 (Molecular Pharmacology Branch, DTP, NCI, 2024)
# Tested on: 935938-334-R-J1-PDC spheroids with HUVEC/MSC, viability
# Assay: Anticancer human tumor 935938-334-R-J1-PDC patient-derived small intestine adenocarcinoma cell line growth inhibition [PI3K]
# Conditions: for IC50: curve of first compound; for viability, T/C: stronger effect = lower value
# Procedure, shortened: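 High-throughput combination screen: PI3K inhibitors crossed with targeted small molecules on complex spheroids of tumor cells, HUVEC and MSCs at 37 degrees C, 5% CO2. Top concentration was at or near clinical Cmax (otherwise 10 microM), with half-log decrements.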
# [1] = second compound 0.0316 µM, first compound 0.0316 µM
# [2] = second compound 0.0316 µM, first compound 0.1 µM
# [3] = second compound 0.0316 µM, first compound 0.316 µM
# [4] = second compound 0.0316 µM, first compound 1 µM
# [5] = second compound 0.1 µM, first compound 0.0316 µM
# [6] = second compound 0.1 µM, first compound 0.1 µM
# [7] = second compound 0.1 µM, first compound 0.316 µM
# [8] = second compound 0.1 µM, first compound 1 µM
# [9] = second compound 0.316 µM, first compound 0.0316 µM
# [10] = second compound 0.316 µM, first compound 0.1 µM
# [11] = second compound 0.316 µM, first compound 0.316 µM
# [12] = second compound 0.316 µM, first compound 1 µM
# [13] = second compound 1 µM, first compound 0.0316 µM
# [14] = second compound 1 µM, first compound 0.1 µM
# [15] = second compound 1 µM, first compound 0.316 µM
# [16] = second compound 1 µM, first compound 1 µM
# [17] = second compound 3.16 µM, first compound 0.0316 µM
# [18] = second compound 3.16 µM, first compound 0.1 µM
# [19] = second compound 3.16 µM, first compound 0.316 µM
# [20] = second compound 3.16 µM, first compound 1 µM
# [21] = second compound 10 µM, first compound 0.0316 µM
# [22] = second compound 10 µM, first compound 0.1 µM
# [23] = second compound 10 µM, first compound 0.316 µM
# [24] = second compound 10 µM, first compound 1 µM
# [25] = second compound 0.0316 µM, first compound 3.16 µM
# [26] = second compound 0.0316 µM, first compound 10 µM
# [27] = second compound 0.1 µM, first compound 3.16 µM
# [28] = second compound 0.1 µM, first compound 10 µM
# [29] = second compound 0.316 µM, first compound 3.16 µM
# [30] = second compound 0.316 µM, first compound 10 µM
# [31] = second compound 1 µM, first compound 3.16 µM
# [32] = second compound 1 µM, first compound 10 µM
# [33] = second compound 3.16 µM, first compound 3.16 µM
# [34] = second compound 3.16 µM, first compound 10 µM
# [35] = second compound 10 µM, first compound 3.16 µM
# [36] = second compound 10 µM, first compound 10 µM
# 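Also: compound exposure lasted seven days before viability was read.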
# 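For viability, T/C in this document: percent of vehicle DMSO treated spheroid viability so 100% = untreated.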
smiles,measurement,setting,value
CCN1CCN(Cc2ccc(Nc3ncc(F)c(-c4cc(F)c5nc(C)n(C(C)C)c5c4)n3)nc2)CC1 + Cc1nc(NC(=O)N2CCCC2C(N)=O)sc1-c1ccnc(C(C)(C)C(F)(F)F)c1,IC50,second compound 0.0316 µM,148 nM
same,IC50,second compound 0.1 µM,43.2 nM
same,IC50,second compound 0.316 µM,55.5 nM
same,IC50,second compound 1 µM,18.8 nM
same,IC50,second compound 3.16 µM,< 3.16 nM
same,IC50,second compound 10 µM,< 3.16 nM
same,"viability, T/C","second compound 0.0316 µM, first compound 0.00316 µM",88.8%
same,"viability, T/C","second compound 0.0316 µM, first compound 0.01 µM",68.9%
same,"viability, T/C",[1],64.3%
same,"viability, T/C",[2],57.2%
same,"viability, T/C",[3],43%
same,"viability, T/C",[4],32.4%
same,"viability, T/C","second compound 0.1 µM, first compound 0.00316 µM",94.5%
same,"viability, T/C","second compound 0.1 µM, first compound 0.01 µM",92.2%
same,"viability, T/C",[5],53.3%
same,"viability, T/C",[6],45.6%
same,"viability, T/C",[7],37.5%
same,"viability, T/C",[8],35.4%
same,"viability, T/C","second compound 0.316 µM, first compound 0.00316 µM",86.6%
same,"viability, T/C","second compound 0.316 µM, first compound 0.01 µM",71.4%
same,"viability, T/C",[9],52.4%
same,"viability, T/C",[10],44.9%
same,"viability, T/C",[11],41.2%
same,"viability, T/C",[12],32.4%
same,"viability, T/C","second compound 1 µM, first compound 0.00316 µM",69.7%
same,"viability, T/C","second compound 1 µM, first compound 0.01 µM",59.2%
same,"viability, T/C",[13],40.8%
same,"viability, T/C",[14],37.7%
same,"viability, T/C",[15],26.1%
same,"viability, T/C",[16],28.3%
same,"viability, T/C","second compound 3.16 µM, first compound 0.00316 µM",41.5%
same,"viability, T/C","second compound 3.16 µM, first compound 0.01 µM",44.6%
same,"viability, T/C",[17],42.6%
same,"viability, T/C",[18],30.7%
same,"viability, T/C",[19],25.7%
same,"viability, T/C",[20],30.1%
same,"viability, T/C","second compound 10 µM, first compound 0.00316 µM",39.2%
same,"viability, T/C","second compound 10 µM, first compound 0.01 µM",44.7%
same,"viability, T/C",[21],34.1%
same,"viability, T/C",[22],26.2%
same,"viability, T/C",[23],35%
same,"viability, T/C",[24],28.5%
Cn1ncc(Cl)c1-c1cc(C(=O)NC(CN)Cc2cccc(F)c2)sc1Cl (stereo unspecified) + Cc1nc(NC(=O)N2CCCC2C(N)=O)sc1-c1ccnc(C(C)(C)C(F)(F)F)c1,IC50,second compound 0.0316 µM,3010 nM
same,IC50,second compound 0.1 µM,743 nM
same,IC50,second compound 0.316 µM,776 nM
same,IC50,second compound 1 µM,266 nM
same,IC50,second compound 3.16 µM,144 nM
same,IC50,second compound 10 µM,< 31.6 nM
same,"viability, T/C",[1],83.4%
same,"viability, T/C",[2],87.5%
same,"viability, T/C",[3],61.9%
same,"viability, T/C",[4],67.4%
same,"viability, T/C",[25],38.1%
same,"viability, T/C",[26],52.8%
same,"viability, T/C",[5],100%
same,"viability, T/C",[6],77.2%
same,"viability, T/C",[7],60.4%
same,"viability, T/C",[8],45.9%
same,"viability, T/C",[27],37%
same,"viability, T/C",[28],24.3%
same,"viability, T/C",[9],90.7%
same,"viability, T/C",[10],67.3%
same,"viability, T/C",[11],60.6%
same,"viability, T/C",[12],45.1%
same,"viability, T/C",[29],43.3%
same,"viability, T/C",[30],26.8%
same,"viability, T/C",[13],48.2%
same,"viability, T/C",[14],62.4%
same,"viability, T/C",[15],42.6%
same,"viability, T/C",[16],46.9%
same,"viability, T/C",[31],35.7%
same,"viability, T/C",[32],23.8%
same,"viability, T/C",[17],53.5%
same,"viability, T/C",[18],62.5%
same,"viability, T/C",[19],34.4%
same,"viability, T/C",[20],38%
same,"viability, T/C",[33],27.1%
same,"viability, T/C",[34],22.4%
same,"viability, T/C",[21],37.9%
same,"viability, T/C",[22],35.8%
same,"viability, T/C",[23],39.2%
same,"viability, T/C",[24],39%
same,"viability, T/C",[35],28.1%
same,"viability, T/C",[36],26.7%
Cn1nccc1Nc1nccc(-c2ccn(C(CO)c3ccc(Cl)c(F)c3)c(=O)c2)n1 (stereo unspecified) + Cc1nc(NC(=O)N2CCCC2C(N)=O)sc1-c1ccnc(C(C)(C)C(F)(F)F)c1,IC50,second compound 0.0316 µM,805 nM
same,IC50,second compound 0.1 µM,973 nM
same,IC50,second compound 0.316 µM,315 nM
same,IC50,second compound 1 µM,211 nM
same,IC50,second compound 3.16 µM,46.8 nM
same,IC50,second compound 10 µM,< 31.6 nM
same,"viability, T/C",[1],92.1%
same,"viability, T/C",[2],80.5%
same,"viability, T/C",[3],61%
same,"viability, T/C",[4],48.5%
same,"viability, T/C",[25],36.2%
same,"viability, T/C",[26],31.6%
same,"viability, T/C",[5],100%
same,"viability, T/C",[6],73.5%
same,"viability, T/C",[7],62%
same,"viability, T/C",[8],53.4%
same,"viability, T/C",[27],38.6%
same,"viability, T/C",[28],25.1%
same,"viability, T/C",[9],94.1%
same,"viability, T/C",[10],71%
same,"viability, T/C",[11],48.2%
same,"viability, T/C",[12],39.3%
same,"viability, T/C",[29],25%
same,"viability, T/C",[30],25.6%
same,"viability, T/C",[13],62.2%
same,"viability, T/C",[14],75.7%
same,"viability, T/C",[15],39.7%
same,"viability, T/C",[16],26%
same,"viability, T/C",[31],25.8%
same,"viability, T/C",[32],19.2%
same,"viability, T/C",[17],50.6%
same,"viability, T/C",[18],51.3%
same,"viability, T/C",[19],33.1%
same,"viability, T/C",[20],37.4%
same,"viability, T/C",[33],20.8%
same,"viability, T/C",[34],18.7%
same,"viability, T/C",[21],43.9%
same,"viability, T/C",[22],48%
same,"viability, T/C",[23],28.6%
same,"viability, T/C",[24],22.2%
same,"viability, T/C",[35],20.8%
same,"viability, T/C",[36],19.9%
